# Patent publication US9409952B2, “Peptide-compound cyclization method” (Chugai Seiyaku Kabushiki Kaisha, priority 2011, dated 2016)
# Starred links: 1 amine or outer side, 2 acyl side, 3 side chain; linkers in the order of their positions; H or OH if unused. Positions of bridges follow the written chain, without caps; N, C: chain ends. Non-standard residues stand in square brackets, D forms with d. Residues, ends and D or L forms follow the SMILES beside them. ξ: configuration not given here. *: point of attachment. Ala(1H-tetrazol-5-yl) = N[C@@H](Cc1nnn[nH]1)C(=O)O; Arg(Me2s) = CN=C(NC)NCCC[C@H](N)C(=O)O; X2 = O=C(C[C@H](N[*:1])C(F)(F)F)[*:2]; Lys(Me2) = CN(C)CCCC[C@H](N)C(=O)O; NMeF = CN[C@@H](Cc1ccccc1)C(=O)O; ξThr(3R) = C[C@@H](O)C(N)C(=O)O; NMeL = CN[C@@H](CC(C)C)C(=O)O; NMeV = CN[C@H](C(=O)O)C(C)C; NMeS = CN[C@@H](CO)C(=O)O; NMeA = CN[C@@H](C)C(=O)O; Piperidide = C1CCN(*)CC1; dNMeA = CN[C@H](C)C(=O)O; β3hA = C[C@H](N)CC(=O)O; Abu = CC[C@H](N)C(=O)O; Sar = CNCC(=O)O
# Assay: PAMPA (parallel artificial membrane permeability assay)
# Type: in vitro ADME
# Conditions: PAMPA
# Summary of the method: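 Artificial membrane was 10% (w/v) egg lecithin plus 0.5% (w/v) cholesterol in dodecane on a PVDF filter. A 10 mM DMSO stock was added at 0.5% (v/v) to donor buffer (50 mM MOPSO, pH 6.5, 5.0% glycocholic acid). After 18 h at 37 °C, LC/MS or LC/UV gave donor and acceptor levels for Pe.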
row,"Papp at 18 h, 50 µM [×10⁻⁶ cm/s]",Compound
1,0.6,"NS(=O)(=O)c1cc2c(cc1Cl)NCNS2(=O)=O [hydrochlorothiazide, reference compound]"
2,29,"COCCc1ccc(OCC(O)CNC(C)C)cc1 (stereo not drawn) [metoprolol, reference compound]"

# Same assay, conditions: PAMPA, pH 6.5
row,Compound,"Papp at 18 hours, 50 µM [×10⁻⁶ cm/s]"
1,CC[C@H](C)[C@@H]1NC(=O)[C@@H]2CCCN2C(=O)[C@H](Cc2ccccc2)NC(=O)[C@H](Cc2ccccc2)NC(=O)[C@H](CC(C)C)NC(=O)[C@H](C(C)C)N(C)C(=O)[C@H](CC(C)C)NC(=O)[C@H](C)NC(=O)[C@H](C)NC(=O)C[C@@H](C(=O)N2CCCCC2)NC(=O)CNC(=O)C([C@@H](C)O)NC1=O (stereo partly drawn) [DP-3] (AAL[NMeV]LFFPI[ξThr(3R)]GD-Piperidide; lactam N-12),0.56
2,CC[C@H](C)[C@@H]1NC(=O)[C@H](CC(C)C)NC(=O)[C@H](CC(C)C)NC(=O)[C@H](C)N(C)C(=O)[C@H](C(C)C)NC(=O)[C@H](C)NC(=O)C[C@@H](C(=O)N2CCCCC2)NC(=O)[C@H](CC(C)C)NC(=O)[C@H]([C@@H](C)O)NC(=O)[C@@H]2CCCN2C(=O)[C@H](CC(C)C)NC(=O)[C@H](Cc2ccccc2)NC1=O [DP-4] (AV[NMeA]LLIFLPTLD-Piperidide; lactam N-12),11
3,CC(C)C[C@@H]1NC(=O)[C@H](CCCCN(C)C)NC(=O)[C@@H]2CCCN2C(=O)[C@H](C)NC(=O)[C@H](CC(C)C)N(C)C(=O)[C@H](Cc2ccccc2)NC(=O)[C@H](CC(C)C)N(C)C(=O)[C@H](CC(C)C)N(C)C(=O)[C@H](Cc2ccccc2)NC(=O)CN(C)C(=O)C[C@@H](C(=O)N(C)[C@@H](Cc2ccccc2)C(=O)N[C@@H](C)C(=O)N2CCCCC2)NC1=O [DP-593] ([Sar]F[NMeL][NMeL]F[NMeL]AP[Lys(Me2)]LD[NMeF]A-Piperidide; lactam N-11),1.1
4,CC(C)C[C@@H]1NC(=O)[C@H](CCC(=O)O)NC(=O)[C@H](Cc2ccccc2)N(C)C(=O)[C@H](CC(C)C)NC(=O)[C@H](CC(C)C)N(C)C(=O)[C@H](Cc2ccccc2)NC(=O)[C@H](CC(C)C)N(C)C(=O)[C@H](CC(C)C)N(C)C(=O)[C@H](Cc2ccccc2)NC(=O)CN(C)C(=O)C[C@@H](C(=O)N(C)[C@@H](Cc2ccccc2)C(=O)N[C@@H](C)C(=O)N2CCCCC2)NC1=O [DP-596] ([Sar]F[NMeL][NMeL]F[NMeL]L[NMeF]ELD[NMeF]A-Piperidide; lactam N-11),3.2

# Same assay, conditions: PAMPA; membrane permeation rate (Pe); 50 mM MOPSO buffer pH 6.5 with 5.0% glycocholic acid, 37° C., 18 hours; read-out: iPAMPA Pe
row,Compound,"Papp at 18 hours, 50 µM [×10⁻⁶ cm/s]"
1,CC(C)C[C@H]1C(=O)N(C)[C@@H](CC(C)C)C(=O)N[C@H](C(=O)N(C)[C@@H](Cc2ccccc2)C(=O)N[C@@H](C)C(=O)N2CCCCC2)CC(=O)N[C@H](C(C)C)C(=O)N(C)[C@@H](C)C(=O)N(C)[C@@H](Cc2ccccc2)C(=O)N(C)[C@@H](CC(C)C)C(=O)N[C@@H](Cc2c[nH]cn2)C(=O)N(C)CC(=O)N[C@@H](C(C)C)C(=O)N1C [DP-585] ([dV][NMeA][NMeF][NMeL]H[Sar]V[NMeL][NMeL]D[NMeF]A-Piperidide; lactam N-10),15
2,CC(C)C[C@@H]1NC(=O)CN(C)C(=O)[C@H](CCCCN(C)C)NC(=O)[C@H](CC(C)C)N(C)C(=O)[C@H](Cc2ccccc2)N(C)C(=O)[C@H](C)N(C)C(=O)[C@@H](C(C)C)NC(=O)C[C@@H](C(=O)N(C)[C@@H](Cc2ccccc2)C(=O)N[C@@H](C)C(=O)N2CCCCC2)NC(=O)[C@H](CC(C)C)N(C)C(=O)[C@H](CC(C)C)N(C)C1=O [DP-587] ([dV][NMeA][NMeF][NMeL][Lys(Me2)][Sar]L[NMeL][NMeL]D[NMeF]A-Piperidide; lactam N-10),3.3
3,CC(C)C[C@@H]1NC(=O)[C@H](CC(C)C)N(C)C(=O)[C@H](CCCCN(C)C)NC(=O)[C@H](CC(C)C)N(C)C(=O)[C@H](Cc2ccccc2)N(C)C(=O)[C@H](CC(C)C)N(C)C(=O)[C@@H](C(C)C)NC(=O)C[C@@H](C(=O)N(C)[C@@H](Cc2ccccc2)C(=O)N[C@@H](C)C(=O)N2CCCCC2)NC(=O)[C@H](CC(C)C)N(C)C(=O)[C@H](CC(C)C)N(C)C1=O [DP-588] ([dV][NMeL][NMeF][NMeL][Lys(Me2)][NMeL]L[NMeL][NMeL]D[NMeF]A-Piperidide; lactam N-10),0.6
4,C/N=C(\NC)NCCC[C@@H]1NC(=O)[C@H](CC(C)C)N(C)C(=O)[C@H](Cc2ccccc2)N(C)C(=O)[C@H](C)N(C)C(=O)[C@@H](C(C)C)NC(=O)C[C@@H](C(=O)N(C)[C@@H](Cc2ccccc2)C(=O)N[C@@H](C)C(=O)N2CCCCC2)NC(=O)[C@H](CC(C)C)N(C)C(=O)[C@H](CC(C)C)N(C)C(=O)[C@H](C(C)C)NC(=O)CN(C)C1=O [DP-590] ([dV][NMeA][NMeF][NMeL][Arg(Me2s)][Sar]V[NMeL][NMeL]D[NMeF]A-Piperidide; lactam N-10),1.4
5,CC(C)C[C@@H]1NC(=O)[C@H](CCCCN(C)C)NC(=O)[C@H](Cc2ccccc2)N(C)C(=O)[C@H](CC(C)C)NC(=O)[C@H](CC(C)C)N(C)C(=O)[C@H](Cc2ccccc2)NC(=O)[C@H](CC(C)C)N(C)C(=O)[C@H](CC(C)C)N(C)C(=O)[C@H](Cc2ccccc2)NC(=O)CN(C)C(=O)C[C@@H](C(=O)N(C)[C@@H](Cc2ccccc2)C(=O)N[C@@H](C)C(=O)N2CCCCC2)NC1=O [DP-594] ([Sar]F[NMeL][NMeL]F[NMeL]L[NMeF][Lys(Me2)]LD[NMeF]A-Piperidide; lactam N-11),1.3
6,CC(C)C[C@@H]1NC(=O)[C@H](CC(C)C)N(C)C(=O)[C@H](C(C)C)NC(=O)C[C@H](C)NC(=O)CN(C)C(=O)[C@H](CC(C)C)NC(=O)[C@H](CO)N(C)C(=O)[C@H](CC(C)C)N(C)C(=O)[C@H](CC(C)C)N(C)C(=O)[C@H](CC(C)C)N(C)C(=O)[C@@H](CC(C)C)NC1=O [DP-640] (cyclo(L[Sar][β3hA]V[NMeL]L[dL][NMeL][NMeL][NMeL][NMeS])),50
7,CC(C)C[C@H]1C(=O)N[C@@H](C(C)C)C(=O)N(C)[C@@H](CC(C)C)C(=O)N[C@@H](C)C(=O)N[C@H](C)C(=O)N(C)[C@@H](CC(C)C)C(=O)N(C)[C@@H](CC(C)C)C(=O)N(C)[C@@H](CC(C)C)C(=O)N(C)[C@@H](CO)C(=O)N[C@H](C(F)(F)F)CC(=O)N(C)CC(=O)N1C [DP-654] (cyclo(A[dA][NMeL][NMeL][NMeL][NMeS][X2][Sar][NMeL]V[NMeL])),23
8,CC[C@@H]1NC(=O)[C@H](CO)N(C)C(=O)[C@H](CC(C)C)N(C)C(=O)[C@H](CC(C)C)N(C)C(=O)[C@H](CC(C)C)N(C)C(=O)[C@@H](C)NC(=O)[C@H](CC(C)C)NC(=O)C[C@@H](C(F)(F)F)NC(=O)[C@H](C(C)C)NC(=O)[C@H](CC(C)C)N(C)C(=O)CN(C)C1=O [DP-656] (cyclo([Abu][Sar][NMeL]V[X2]L[dA][NMeL][NMeL][NMeL][NMeS])),30
9,CC[C@H](C)[C@@H]1NC(=O)[C@H](CC(C)C)N(C)C(=O)CN(C)C(=O)[C@H]([C@@H](C)O)NC(=O)[C@H](C)N(C)C(=O)C[C@@H](C(=O)N(C)[C@@H](CC(C)C)C(=O)N[C@@H](C)C(=O)N2CCCCC2)NC(=O)[C@H](CC(C)C)N(C)C(=O)[C@H](Cc2ccccc2)N(C)C(=O)[C@H](CC(C)C)N(C)C1=O [DP-663] ([NMeA]T[Sar][NMeL]I[NMeL][NMeF][NMeL]D[NMeL]A-Piperidide; lactam N-9),43
10,CC(C)C[C@@H]1NC(=O)[C@H](Cc2ccccc2)N(C)C(=O)[C@H](Cc2ccccc2)N(C)C(=O)[C@H](C(C)C)NC(=O)[C@H](CC(C)C)N(C)C(=O)[C@H](Cc2nn[nH]n2)NC(=O)[C@H](CC(C)C)N(C)C(=O)C[C@@H](C(=O)N2CCCCC2)NC(=O)[C@H](CC(C)C)N(C)C1=O [DP-907] ([NMeL][Ala(1H-tetrazol-5-yl)][NMeL]V[NMeF][NMeF]L[NMeL]D-Piperidide; lactam N-9),21
11,CC[C@H](C)[C@H](NC(=O)[C@H](CC(C)C)NC(=O)[C@H](Cc1ccccc1)NC(=O)[C@@H]1CCCN1C(=O)[C@H](CC(C)C)NC(=O)[C@@H]1CC(=O)N[C@@H](Cc2ccccc2)C(=O)N(C)[C@@H](Cc2ccccc2)C(=O)N(C)[C@@H](CC(C)C)C(=O)N[C@@H]([C@@H](C)O)C(=O)N(C)[C@@H](C)C(=O)N(C)[C@@H](CC(C)C)C(=O)N1)C(=O)N1CCCCC1 [DP-910] (F[NMeF][NMeL]T[NMeA][NMeL]DLPFLI-Piperidide; lactam N-7),0.16
12,CC[C@H](C)[C@@H]1NC(=O)[C@H](CC(C)C)N(C)C(=O)[C@H](C)N(C)C(=O)[C@H](Cc2ccccc2)N(C)C(=O)[C@@H](C)N(C)C(=O)C[C@@H](C(=O)N2CCCCC2)NC(=O)[C@H](CC(C)C)N(C)C(=O)[C@H]([C@@H](C)O)NC(=O)[C@H](CO)NC(=O)[C@H](CC(C)C)NC(=O)[C@H](C)N(C)C(=O)[C@H](CC(C)C)N(C)C(=O)[C@H](Cc2ccccc2)NC(=O)[C@H](CC(C)C)N(C)C1=O [DP-959] ([dNMeA][NMeF][NMeA][NMeL]I[NMeL]F[NMeL][NMeA]LST[NMeL]D-Piperidide; lactam N-14),2.9

# Same assay, conditions: membrane permeation rate (Pe); 50 mM MOPSO buffer pH 6.5 with 5.0% glycocholic acid, 37° C., 18 hours
row,Compound,iPAMPA Pe
1,C/N=C(\NC)NCCC[C@@H]1NC(=O)[C@H](Cc2ccccc2)N(C)C(=O)[C@H](CC(C)C)NC(=O)[C@H](CC(C)C)N(C)C(=O)[C@H](Cc2ccccc2)NC(=O)[C@H](CC(C)C)N(C)C(=O)[C@H](CC(C)C)N(C)C(=O)[C@H](Cc2ccccc2)NC(=O)CN(C)C(=O)C[C@@H](C(=O)N(C)[C@@H](Cc2ccccc2)C(=O)N[C@@H](C)C(=O)N2CCCCC2)NC(=O)[C@H](CC(C)C)NC1=O [DP-598] ([Sar]F[NMeL][NMeL]F[NMeL]L[NMeF][Arg(Me2s)]LD[NMeF]A-Piperidide; lactam N-11),1.0E−07

# Assay: Metabolic stability in human hepatic microsome
# Type: in vitro ADME
# Conditions: human, microsomes, pH 7.4, CL NADPH(+)
row,Compound,microsomal CLint at 1 uM [µL/min/mg]
1,CC[C@H](C)[C@@H]1NC(=O)[C@@H]2CCCN2C(=O)[C@H](Cc2ccccc2)NC(=O)[C@H](Cc2ccccc2)NC(=O)[C@H](CC(C)C)NC(=O)[C@H](C(C)C)N(C)C(=O)[C@H](CC(C)C)NC(=O)[C@H](C)NC(=O)[C@H](C)NC(=O)C[C@@H](C(=O)N2CCCCC2)NC(=O)CNC(=O)C([C@@H](C)O)NC1=O (stereo partly drawn) [DP-3] (AAL[NMeV]LFFPI[ξThr(3R)]GD-Piperidide; lactam N-12),45
2,CC[C@H](C)[C@@H]1NC(=O)[C@H](CC(C)C)NC(=O)[C@H](CC(C)C)NC(=O)[C@H](C)N(C)C(=O)[C@H](C(C)C)NC(=O)[C@H](C)NC(=O)C[C@@H](C(=O)N2CCCCC2)NC(=O)[C@H](CC(C)C)NC(=O)[C@H]([C@@H](C)O)NC(=O)[C@@H]2CCCN2C(=O)[C@H](CC(C)C)NC(=O)[C@H](Cc2ccccc2)NC1=O [DP-4] (AV[NMeA]LLIFLPTLD-Piperidide; lactam N-12),42
